We go through 20 molecules from ChEMBL document CHEMBL3627677, “Novel 2H-chromen-2-one derivatives of resveratrol: Design, synthesis, modeling and use as human monoamine oxidase inhibitors” (Eur J Med Chem, 2015).

Data set [1] concerns the target T1, Amine oxidase [flavin-containing] A (Homo sapiens, UniProt P21397).
T1 sequence (P21397 whole entry): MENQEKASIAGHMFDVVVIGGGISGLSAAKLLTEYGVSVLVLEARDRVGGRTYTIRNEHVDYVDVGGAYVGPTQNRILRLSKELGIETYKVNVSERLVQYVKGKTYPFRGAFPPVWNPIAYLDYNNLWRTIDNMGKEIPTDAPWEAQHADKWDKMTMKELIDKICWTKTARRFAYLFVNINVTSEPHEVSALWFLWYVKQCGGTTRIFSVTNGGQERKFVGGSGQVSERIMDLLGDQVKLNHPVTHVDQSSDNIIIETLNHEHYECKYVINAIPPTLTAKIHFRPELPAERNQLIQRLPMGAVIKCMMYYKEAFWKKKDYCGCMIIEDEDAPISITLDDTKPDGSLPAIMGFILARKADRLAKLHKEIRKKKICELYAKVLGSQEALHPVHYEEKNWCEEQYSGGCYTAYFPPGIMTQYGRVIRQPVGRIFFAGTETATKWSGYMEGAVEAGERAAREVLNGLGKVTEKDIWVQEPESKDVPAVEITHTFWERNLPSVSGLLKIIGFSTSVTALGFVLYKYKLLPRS
The experiment in a line: Inhibition of recombinant human MAOA using p-tyramine as substrate assessed as H2O2 production preincubated for 15 mins followed by substrate addition by fluorometric analysis.

The target in data set [2] is T2, Amine oxidase [flavin-containing] B (Homo sapiens, UniProt P27338).
T2 sequence (P27338 whole entry): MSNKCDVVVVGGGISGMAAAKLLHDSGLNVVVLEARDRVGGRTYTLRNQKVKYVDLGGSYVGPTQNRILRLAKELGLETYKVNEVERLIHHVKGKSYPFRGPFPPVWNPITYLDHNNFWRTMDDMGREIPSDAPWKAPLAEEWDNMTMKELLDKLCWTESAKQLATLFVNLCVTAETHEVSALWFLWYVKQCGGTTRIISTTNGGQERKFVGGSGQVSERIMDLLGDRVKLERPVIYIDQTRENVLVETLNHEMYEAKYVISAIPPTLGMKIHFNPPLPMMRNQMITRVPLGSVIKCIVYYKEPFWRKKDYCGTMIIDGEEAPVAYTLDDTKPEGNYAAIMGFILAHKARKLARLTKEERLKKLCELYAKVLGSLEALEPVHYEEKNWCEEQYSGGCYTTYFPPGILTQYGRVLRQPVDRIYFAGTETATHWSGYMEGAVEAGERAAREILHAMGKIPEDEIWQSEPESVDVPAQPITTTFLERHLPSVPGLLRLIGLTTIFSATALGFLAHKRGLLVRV
The experiment in a line: Inhibition of recombinant human MAOB using p-tyramine as substrate assessed as H2O2 production preincubated for 15 mins followed by substrate addition by fluorometric analysis.

Data set [3] is filed under the species Homo sapiens. The experiment in a line: Selectivity ratio of IC50 for recombinant human MAOA to IC50 for recombinant human MAOB.
The species named for data set [4] is Homo sapiens. The experiment in a line: Selectivity ratio of IC50 for recombinant human MAOB to IC50 for recombinant human MAOA.
The nature of data set [5]: Toxicity in SPF Kuming mouse assessed as death at 500 to 1000 mg/kg, po measured up to 14 days. The format is organism-based. As to conditions: in vivo.

`COc1ccc(/C=C/c2cc(OC)cc(OC)c2/C=C/C(=O)c2cc3cc(Cl)ccc3oc2=O)cc1`: the IC50 in data set [1] and in data set [2] was more than 60 µM in each case.

With `COc1ccc(/C=C/c2cc(OC)cc(OC)c2/C=C/C(=O)c2cc3cccc(Br)c3oc2=O)cc1`, the IC50 in data set [1] and in data set [2] was more than 60 µM in each case.

Consider `COc1ccc(/C=C/c2cc(OC)cc(OC)c2/C=C/C(=O)c2cc3ccccc3oc2=O)cc1`, for which the Ratio IC50 is 4.54 in data set [3] and 0.22 in data set [4]. The half-inhibitory concentration (IC50) is 41.7 µM in data set [1] and 9.17 µM in data set [2].

Consider `COc1ccc(/C=C/c2cc(OC)cc(OC)c2/C=C/C(=O)c2cc3ccc(N(C)C)cc3oc2=O)cc1`, for which, in data set [2], the IC50 is more than 60 µM.

`COc1ccc(/C=C/c2cc(OC)cc(OC)c2/C=C/C(=O)c2cc3ccc(C)cc3oc2=O)cc1`: the figures for the Ratio IC50 in data set [3] and in data set [4] were 20.9 and 0.05, respectively. For the same molecule, the IC50 worked out at 58.2 µM in data set [1] and 2.78 µM in data set [2]. For the same molecule, the 50% lethal dose (LD50) at 336 h in data set [5] is more than 1000 mg/kg.

With `COc1ccc(/C=C/c2cc(OC)cc(OC)c2/C=C/C(=O)c2cc3cc(F)ccc3oc2=O)cc1`, the Ratio IC50 in data set [3] turned out to be 4.36; in data set [4] it was 0.23. The values for the IC50 in data set [1] and in data set [2] were 44.3 µM and 10.2 µM, respectively.

On to `COc1ccc(/C=C/c2cc(OC)cc(OC)c2/C=C/C(=O)c2cc3cccc(OC)c3oc2=O)cc1`, for which the Ratio IC50 in data set [3] is more than 2.68; in data set [4] it was less than 0.37. Further, the IC50 is more than 60 µM in data set [1] and 22.4 µM in data set [2].

In the case of `COc1ccc(/C=C/c2cc(OC)cc(OC)c2/C=C/C(=O)c2cc3cc(OC)ccc3oc2=O)cc1`, the IC50 in data set [1] and in data set [2] was more than 60 µM throughout.

Take `COc1ccc(/C=C/c2cc(OC)cc(OC)c2/C=C/C(=O)c2cc3cc(Br)cc(OC)c3oc2=O)cc1`: the IC50 in data set [1] and in data set [2] was more than 60 µM each time.

With `CCOc1cccc2cc(C(=O)/C=C/c3c(/C=C/c4ccc(OC)cc4)cc(OC)cc3OC)c(=O)oc12`, the Ratio IC50 in data set [3] was less than 0.05; in data set [4], more than 18.8. Moreover, the IC50 in data set [1] was 3.2 µM; in data set [2], more than 60 µM. Further, the LD50 at 336 h in data set [5] was more than 1000 mg/kg.

For `COc1ccc(/C=C/c2cc(OC)cc(OC)c2/C=C/C(=O)c2cc3cc(C)ccc3oc2=O)cc1`, the Ratio IC50 was determined as 5.97 in data set [3] and 0.17 in data set [4]. The IC50 in data set [1] amounted to 30.4 µM; in data set [2], 5.09 µM.

Take `COc1ccc(/C=C/c2cc(OC)cc(OC)c2/C=C/C(=O)c2cc3cccc(C)c3oc2=O)cc1`: the results for the Ratio IC50 in data set [3] and in data set [4] were more than 3 and less than 0.33, respectively. Besides, the figures for the IC50 in data set [1] and in data set [2] were more than 60 µM and 20 µM, respectively.

As for `COc1ccc(/C=C/c2cc(OC)cc(OC)c2/C=C/C(=O)c2cc3ccc(Br)cc3oc2=O)cc1`, the Ratio IC50 amounted to 0.05 in data set [3] and 18.4 in data set [4]. For the same molecule, the results for the IC50 in data set [1] and in data set [2] were 3.01 µM and 55.3 µM, respectively.

On to `C=CCc1cc(OC)c2oc(=O)c(C(=O)/C=C/c3c(/C=C/c4ccc(OC)cc4)cc(OC)cc3OC)cc2c1`, for which the Ratio IC50 in data set [3] was determined as 0.1; in data set [4] it was 9.53. Moreover, the results for the IC50 in data set [1] and in data set [2] were 5.3 µM and 50.5 µM, respectively.

Turning to `COc1ccc(/C=C/c2cc(OC)cc(OC)c2/C=C/C(=O)c2cc3ccc(OC)cc3oc2=O)cc1`, the results for the Ratio IC50 in data set [3] and in data set [4] were more than 14.3 and less than 0.07, respectively. Further, the IC50 is more than 60 µM in data set [1] and 4.2 µM in data set [2].

For the molecule `COc1ccc(/C=C/c2cc(OC)cc(OC)c2/C=C/C(=O)c2cc3c(OC)cccc3oc2=O)cc1`, the Ratio IC50 was more than 4.13 in data set [3] and less than 0.24 in data set [4]. The values for the IC50 in data set [1] and in data set [2] were more than 60 µM and 14.5 µM, respectively.

In the case of `COc1ccc(/C=C/c2cc(OC)cc(OC)c2/C=C/C(=O)c2cc3c(OC)cc(OC)cc3oc2=O)cc1`, the Ratio IC50 was found to be 0.6 in data set [3] and 1.67 in data set [4]. Also, the IC50 in data set [1] stood at 21.2 µM; in data set [2], 35.5 µM.

Regarding `COc1ccc(/C=C/c2cc(OC)cc(OC)c2/C=C/C(=O)c2cc3ccc(Cl)cc3oc2=O)cc1`, the Ratio IC50 in data set [3] was more than 8.15; in data set [4] it was less than 0.12. Also, the figures for the IC50 in data set [1] and in data set [2] were more than 60 µM and 7.36 µM, respectively.

Regarding `CCOc1ccc2cc(C(=O)/C=C/c3c(/C=C/c4ccc(OC)cc4)cc(OC)cc3OC)c(=O)oc2c1`, the Ratio IC50 in data set [3] came out at 0.15; in data set [4] it was 6.8. Further, the IC50 came out at 7.07 µM in data set [1] and 48.1 µM in data set [2].

As for `COc1ccc(/C=C/c2cc(OC)cc(OC)c2/C=C/C(=O)c2cc3cc(Br)ccc3oc2=O)cc1`, the Ratio IC50 in data set [3] was less than 0.2; in data set [4], more than 4.95. Moreover, the figures for the IC50 in data set [1] and in data set [2] were 12.1 µM and more than 60 µM, respectively.

As usually defined, the IC50 is the concentration at which inhibition is half-maximal. The term LD50 denotes the dose at which mortality reaches 50%.
